From patent US20240415855A1, “COMPOSITIONS AND METHODS RELATING TO USE OF PHOSPHATIDIC ACID TO RESCUE FETAL ALCOHOL SPECTRUM DISORDER (FASD) GROWTH RESTRICTION AND BLOOD VESSEL CONSTRICTION” (Wayne State University, priority 2023, published 2024)
Read-outs that look alike come from different tables or passages of the source.

What was measured:
[1] = system: pregnant Sprague-Dawley rats; conditions: rat, in vivo
Experimental: (§2) Molecule administered: PA (#840857C, Avanti Polar Lipids) was air-dried under a gentle stream of nitrogen gas and resuspended in 1% BSA to make a 10^−2 M stock solution. PA was administered to pregnant rats in vivo at a dose of 4.5 mg/kg/day for alcohol dose of 4.5 g/kg body weight from gestation day 4 through 10 and 6 mg/kg/day for alcohol dose of 6 g/kg body weight from gestation day 11 through 19 or 20.
(§3) Timed pregnant Sprague-Dawley rats (8-12 weeks old), were purchased from Charles River (Wilmington, MA, USA) and arrived on GD 4, where they were housed in a temperature-controlled room (23° C.) with a 12:12 h light-dark cycle. The dams were acclimatized for a day before weighing and handling. The dams were then assigned into experimental groups. Four in vivo treatment groups were utilized: (1) a nutritional pair-fed control group (control), that served as a control for nutrition and for the gavage procedure. To control for the calories derived from alcohol, these pair-fed control rats were administered isocaloric maltose-dextrin (once-daily) via orogastric gavage. […] (3) An in vivo phosphatidic acid (PA) control group (control PA), to control for the in vivo PA supplement. […] (4) A binge alcohol in vivo PA group (alcohol PA), that received alcohol via intragastric gavage similar to those in the binge alcohol group along with the PA supplement. Daily PA doses were calculated based on the dam's weight at the time of administration (PA (μL)=0.2×dam weight (g) GD 5-10; PA (μL)=0.2105×weight (g) GD 11-19). Intake of food in the alcohol treatment group was measured, and an equivalent amount of food was given to the pair-fed control dams to account for additional nutritional factors. Rats were euthanized by decapitation while under isoflurane anesthesia.
(§4) Maternal weights and fetal weights were measured on GD 20-21, one day after the last treatment on GD 19-20, following euthanasia.
(§5) Maternal weight and fetal weight (unit of analysis is a dam or litter) were analyzed using two-way mixed ANOVA with alcohol as the between factor and PA as the within factor. Normality was tested using the Shapiro-Wilk normality test where appropriate. […] The data were considered significant if the p value was <0.05.

[2] = system: endothelial nitric oxide synthase (eNOS); assay: Uterine artery eNOS immunoblotting / immunofluorescence after in vivo treatment; set-up: species or system rat; conditions: for Total eNOS levels in uterine artery: ethanol and/or PA treatment; for P-Ser1177 eNOS level in uterine artery: ethanol/alcohol-exposed vs control, P<0.05
Experimental: (§1) The dams were then assigned into experimental groups. […] Rats were euthanized by decapitation while under isoflurane anesthesia.
Immunoblotting was performed using standard laboratory procedures. Following euthanasia, the uterine arteries were isolated by separating the vein, and cleaning the adipose tissues in HBS, before flash freezing for immunoblot analysis. Tissues were first homogenized using a 4° C. cooled bead homogenizer (Benchmark Scientific, Sayreville, NJ, USA) and then quantified using BCA protein quantification assay. Next, 20 μg of the uterine artery sample protein was then loaded on to 4-20% mini-protean TGX gels (Bio-rad, Hercules, CA, USA). Following transfer to a PVDF membrane, P-Ser1177 eNOS (Novus Biologicals, Centennial, CO, USA), total eNOS (BD Biosciences, Franklin Lakes, NJ, USA), and β-Actin (Sigma Aldrich, St. Louis, MI, USA) were probed. Densitometry analysis was performed using AzureSpot (Azure Biosystems, Dublin, CA, USA).
Immunofluorescence assessments were performed using previously published protocols. In brief, maternal uterine arteries were sectioned at 8 μm with a Leica cryostat (CM1860, Leica Biosystems, Buffalo Grove, IL, USA). Sections were subsequently fixed with ice-cold methanol (30 min, −20° C.), and then rinsed in PBS, and incubated in 10% normal serum (60 min). This was followed by incubation with (1:100; p1177-eNOS; Cell Signaling and 1:250; total eNOS, BD Biosciences) primary antibody overnight at 4° C. in a humidified chamber. The sections were then incubated with goat anti-rabbit IgG secondary antibody (Alexa Fluor 488, Invitrogen, Carlsbad, CA, USA), for 1 h at room temperature. Digital images were captured with an Olympus BX63 […] that was equipped with U-HGLGPS fluorescent light source, ORCA-Flash 4.0 LT camera, Hamamatsu Photonics (Hamamatsu, Japan), and Olympus cellSens Dimension software Version 3.2 (Olympus, Tokyo, Japan).

[3] = system: pregnant Sprague-Dawley rats; assay: Maternal and fetal growth assessment in FASD rat model (binge alcohol with or without in vivo PA)
Experimental: as §2, §3, §4, §5

[4] = system: uterine artery; assay: Pressure arteriography of uterine artery (ACh-induced vasodilation) after in vivo treatment; set-up: species or system rat; conditions: ethanol/alcohol group vs control, p<0.05
Experimental: as §1
Following euthanasia, the entirety of the uterus was excised and immediately placed in ice-cold HBS for pressure arteriography experiments. Uterine artery functional assessments were performed following uterine artery isolation using established procedures. Briefly, the uterine horn was transferred to a 200 mm petri dish with solidified Sylgard to facilitate tissue isolation and cleaning in ice-cold HBS. A 3-5 mm segment of the primary uterine artery was dissected between arterial bifurcations from the approximate center of the uterine horn. Surrounding adipose and connective tissues were carefully removed from the uterine artery segment. […] Intramural pressure was then increased to mimic in vivo pressures at 90 mm Hg, at which pressure the ACh concentration responses were measured. Vessels were pre-constricted with 10^−6 M Tbx as determined previously. […] The above treatment was followed by the administration of three-fold increasing concentrations of ACh from 10^−10 M up to 10^−5 M. Vascular response was recorded by established methods using Ionwizard software version 6.6 (Ionoptix LLC, Westwood, MA, USA) for at least 5 min, or until arterial diameter stabilized.

[5] = fetuses from ethanol-fed rats, P<0.05

Row | Compound | Maternal body weights [1] | Total eNOS levels in uterine artery [2] | Total eNOS levels in uterine artery ([2]; listed as alcohol) | P-Ser1177 eNOS level in uterine artery [2] | P-Ser1177 eNOS level in uterine artery ([2]; listed as Alcohol) | P-Ser1177 eNOS level in uterine artery ([2]; listed as Ethanol) | Maternal body weights ([3]; GD 20-21, control, alcohol, control PA, alcohol PA groups) | Average litter size ([3]; alcohol group) | Mean fetal weights ([3]; alcohol group vs control, p<0.0001) | Crown-rump length lower than pair-fed control [3, 5] [%] | Mean fetal weight lower than pair-fed control [3, 5] [%] | Acetylcholine-induced uterine artery relaxation (vasodilation) [4] | Acetylcholine-induced uterine artery relaxation (vasodilation) ([4]; listed as alcohol)
1 | L-α-phosphatidic acid [PA] | did not differ among the treatment groups |  |  |  |  |  |  |  |  |  |  |  | 
2 | CCO [ethanol] |  | Neither ethanol treatment nor PA affected total eNOS levels | Neither alcohol nor PA had any effect on total eNOS | decreases | significantly reduced | significantly reduced | did not differ among the treatment groups | 10.83±1.33 | significantly lower | ~8 | ~9 | significantly impaired | significantly decreased
